Assay results reported in US8450243B2, “Herbicidal quinoline and 1,8-naphthyridine compounds” (Syngenta Limited, priority 2009, dated 2013).

Tests used:
Format in all cases: in vivo
[1] = tested on: Abuthilon theophrasti (ABUTH); assay: Herbicidal glasshouse test, post-emergence; conditions: POST Application, evaluated after 13 days; for pest or weed control at 250 g/ha: Abutilon theophrasti, post-emergence, 312 h, read-out: damage to plant (100=total damage to plant; 0=no damage to plant); for damage to plant (100=total damage to plant; 0=no damage to plant): 250 g/ha
Description: (§1) Seeds of a variety of test species were sown in standard soil in pots (Alopecurus myosuroides (ALOMY), Setaria faberi (SETFA), Echinochloa crus-galli (ECHCG), Abuthilon theophrasti (ABUTH) and Amaranthus retoflexus (AMARE)). After cultivation for one day (pre-emergence) or after 8 days cultivation (post-emergence) under controlled conditions in a glasshouse (at 24/16° C., day/night; 14 hours light; 65% humidity), the plants were sprayed with an aqueous spray solution derived from the formulation of the technical active ingredient in acetone/water (50:50) solution containing 0.5% Tween 20 (polyoxyethelyene sorbitan monolaurate, CAS RN 9005-64-5). Compounds were applied at 250 g/ha. The test plants were then grown in a glasshouse under controlled conditions in a glasshouse (at 24/16° C., day/night; 14 hours light; 65% humidity) and watered twice daily. After 13 days for pre and post-emergence, the test was evaluated (100=total damage to plant; 0=no damage to plant).

[2] = tested on: Alopecurus myosuroides (ALOMY); assay: Herbicidal glasshouse test, post-emergence; conditions: POST Application, evaluated after 13 days; for pest or weed control at 250 g/ha: Alopecurus myosuroides, post-emergence, 312 h, read-out: damage to plant (100=total damage to plant; 0=no damage to plant); for damage to plant (100=total damage to plant; 0=no damage to plant): 250 g/ha
Description: as §1

[3] = tested on: Amaranthus retoflexus (AMARE); assay: Herbicidal glasshouse test, post-emergence; conditions: POST Application, evaluated after 13 days; for pest or weed control at 250 g/ha: Amaranthus retroflexus, post-emergence, 312 h, read-out: damage to plant (100=total damage to plant; 0=no damage to plant); for damage to plant (100=total damage to plant; 0=no damage to plant): 250 g/ha
Description: as §1

[4] = tested on: Echinochloa crus-galli (ECHCG); assay: Herbicidal glasshouse test, post-emergence; conditions: POST Application, evaluated after 13 days; for pest or weed control at 250 g/ha: Echinochloa crus-galli, post-emergence, 312 h, read-out: damage to plant (100=total damage to plant; 0=no damage to plant); for damage to plant (100=total damage to plant; 0=no damage to plant): 250 g/ha
Description: as §1

Setaria faberi (SETFA) [5] = assay: Herbicidal glasshouse test, post-emergence; conditions: POST Application, evaluated after 13 days; for pest or weed control at 250 g/ha: Setaria faberi, post-emergence, 312 h, read-out: damage to plant (100=total damage to plant; 0=no damage to plant); for damage to plant (100=total damage to plant; 0=no damage to plant): 250 g/ha
Description: as §1

[6] = tested on: Abuthilon theophrasti (ABUTH); assay: Herbicidal glasshouse test, pre-emergence; conditions: PRE Application, evaluated after 13 days; for pest or weed control at 250 g/ha: Abutilon theophrasti, pre-emergence, 312 h, read-out: damage to plant (100=total damage to plant; 0=no damage to plant); for damage to plant (100=total damage to plant; 0=no damage to plant): 250 g/ha
Description: as §1

[7] = tested on: Alopecurus myosuroides (ALOMY); assay: Herbicidal glasshouse test, pre-emergence; conditions: PRE Application, evaluated after 13 days; for pest or weed control at 250 g/ha: Alopecurus myosuroides, pre-emergence, 312 h, read-out: damage to plant (100=total damage to plant; 0=no damage to plant); for damage to plant (100=total damage to plant; 0=no damage to plant): 250 g/ha
Description: as §1

[8] = tested on: Amaranthus retoflexus (AMARE); assay: Herbicidal glasshouse test, pre-emergence; conditions: PRE Application, evaluated after 13 days; for pest or weed control at 250 g/ha: Amaranthus retroflexus, pre-emergence, 312 h, read-out: damage to plant (100=total damage to plant; 0=no damage to plant); for damage to plant (100=total damage to plant; 0=no damage to plant): 250 g/ha
Description: as §1

[9] = tested on: Echinochloa crus-galli (ECHCG); assay: Herbicidal glasshouse test, pre-emergence; conditions: PRE Application, evaluated after 13 days; for pest or weed control at 250 g/ha: Echinochloa crus-galli, pre-emergence, 312 h, read-out: damage to plant (100=total damage to plant; 0=no damage to plant); for damage to plant (100=total damage to plant; 0=no damage to plant): 250 g/ha
Description: as §1

Setaria faberi (SETFA) [10] = assay: Herbicidal glasshouse test, pre-emergence; conditions: PRE Application, evaluated after 13 days; for pest or weed control at 250 g/ha: Setaria faberi, pre-emergence, 312 h, read-out: damage to plant (100=total damage to plant; 0=no damage to plant); for damage to plant (100=total damage to plant; 0=no damage to plant): 250 g/ha
Description: as §1

| Structure (SMILES) | pest or weed control at 250 g/ha [1] [%] | pest or weed control at 250 g/ha [2] [%] | pest or weed control at 250 g/ha [3] [%] | pest or weed control at 250 g/ha [4] [%] | pest or weed control at 250 g/ha (Setaria faberi (SETFA) [5]) [%] | pest or weed control at 250 g/ha [6] [%] | pest or weed control at 250 g/ha [7] [%] | pest or weed control at 250 g/ha [8] [%] | pest or weed control at 250 g/ha [9] [%] | pest or weed control at 250 g/ha (Setaria faberi (SETFA) [10]) [%] | damage to plant (100=total damage to plant; 0=no damage to plant) [1] | damage to plant (100=total damage to plant; 0=no damage to plant) [2] | damage to plant (100=total damage to plant; 0=no damage to plant) [3] | damage to plant (100=total damage to plant; 0=no damage to plant) [4] | damage to plant (100=total damage to plant; 0=no damage to plant) (Setaria faberi (SETFA) [5]) | damage to plant (100=total damage to plant; 0=no damage to plant) [6] | damage to plant (100=total damage to plant; 0=no damage to plant) [7] | damage to plant (100=total damage to plant; 0=no damage to plant) [8] | damage to plant (100=total damage to plant; 0=no damage to plant) [9] | damage to plant (100=total damage to plant; 0=no damage to plant) (Setaria faberi (SETFA) [10]) |
| --- | --- | --- | --- | --- | --- | --- | --- | --- | --- | --- | --- | --- | --- | --- | --- | --- | --- | --- | --- | --- |
| Cc1ccc2cc(C(=O)C3C(=O)CCCC3=O)c(=O)n(C)c2n1 [Compound 1.2, 2-(1,7-Dimethyl-2-oxo-1,2-dihydro[1,8]-naphthyridine-3-carbonyl)-cyclohexane-1,3-dione] | 80 | 40 | 80 | 80 | 80 | 70 | 20 | 40 | 90 | 70 | – | – | – | – | – | – | – | – | – | – |
| Cn1c(=O)c(C(=O)C2C(=O)CCCC2=O)cc2cccnc21 [Compound 1.29] | 90 | 30 | 90 | 80 | 90 | 90 | 30 | 100 | 100 | 10 | – | – | – | – | – | – | – | – | – | – |
| Cc1cc(C)c2cc(C(=O)C3C(=O)CCCC3=O)c(=O)n(C)c2n1 [Compound 1.42] | 50 | 0 | 70 | 70 | 60 | 0 | 0 | 0 | 0 | 0 | – | – | – | – | – | – | – | – | – | – |
| COCn1c(=O)c(C(=O)C2C(=O)CCCC2=O)cc2cc(F)cnc21 [Compound 1.43] | 80 | 60 | 80 | 80 | 80 | 100 | 40 | 100 | 100 | 100 | – | – | – | – | – | – | – | – | – | – |
| COCCn1c(=O)c(C(=O)C2C(=O)CCCC2=O)cc2cc(F)cnc21 [Compound 1.44] | 90 | 80 | 80 | 80 | 80 | 90 | 90 | 100 | 100 | 100 | – | – | – | – | – | – | – | – | – | – |
| O=C1CCCC(=O)C1C(=O)c1cc2cc(F)cnc2n(CC(F)F)c1=O [Compound 1.45] | – | – | – | – | – | – | – | – | – | – | 80 | 60 | 80 | 80 | 80 | 100 | 70 | 100 | 100 | 80 |
| COCn1c(=O)c(C(=O)C2C(=O)CCCC2=O)cc2cc(F)c(C)nc21 [Compound 1.46] | 100 | 70 | 70 | 80 | 70 | 80 | 60 | 100 | 100 | 80 | – | – | – | – | – | – | – | – | – | – |
| COCCn1c(=O)c(C(=O)C2C(=O)CCCC2=O)cc2cc(F)c(C)nc21 [Compound 1.47] | 70 | 80 | 70 | 90 | 80 | 90 | 50 | 100 | 90 | 90 | – | – | – | – | – | – | – | – | – | – |
| O=C1CCCC(=O)C1C(=O)c1cc2cc(F)cnc2n(CCC=C(F)F)c1=O [Compound 1.48] | – | – | – | – | – | – | – | – | – | – | 80 | 70 | 40 | 80 | 80 | 90 | 80 | 100 | 100 | 90 |
| CCn1c(=O)c(C(=O)C2C(=O)CCCC2=O)cc2cc(F)cnc21 [Compound 1.49] | 80 | 70 | 70 | 80 | 70 | 90 | 60 | 100 | 100 | 90 | – | – | – | – | – | – | – | – | – | – |
| CCCn1c(=O)c(C(=O)C2C(=O)CCCC2=O)cc2cc(F)cnc21 [Compound 1.50] | 80 | 70 | 70 | 80 | 80 | 90 | 80 | 90 | 100 | 100 | – | – | – | – | – | – | – | – | – | – |
| Cn1c(=O)c(C(=O)C2C(=O)CCCC2=O)cc2ccc(Br)cc21 [Compound 3.42] | 90 | 20 | 80 | 80 | 70 | 50 | 10 | 80 | 70 | 0 | – | – | – | – | – | – | – | – | – | – |
| O=C1CCCC(=O)C1C(=O)c1cc2cc(F)cnc2n(-c2cccc(C(F)(F)F)c2)c1=O [Compound 4.11] | – | – | – | – | – | – | – | – | – | – | 100 | 90 | 90 | 90 | 90 | 90 | 70 | 100 | 90 | 80 |
| O=C1CCCC(=O)C1C(=O)c1cc2cc(F)cnc2n(Cc2ccccc2F)c1=O [Compound 4.15] | – | – | – | – | – | – | – | – | – | – | 80 | 30 | 50 | 80 | 70 | 70 | 0 | 50 | 80 | 0 |
| O=C1CCCC(=O)C1C(=O)c1cc2cc(F)cnc2n(CCOc2ccccc2)c1=O [Compound 4.16] | 80 | 40 | 50 | 80 | 60 | 50 | 20 | 30 | 50 | 20 | – | – | – | – | – | – | – | – | – | – |
